Test results: patent US20100234377A1 (priority 2007, published 2010)

target: T1, human Prostaglandin D Synthase (GST2) (Homo sapiens, UniProt O60760); assay: Homogeneous biochemical assay of human Prostaglandin D Synthase (GST2) based on its glutathion-S-transferase activity (GSH conjugation to monochlorobimane, fluorescence); settings: given beside the compound name in Examples 1 to 167; read-out: Potency Range (GST2 IC50)
T1 construct: the open reading frame of human Prostaglandin D Synthase was amplified from cDNA; made in house; host or cells: E. coli TOP10F'
T1 sequence (O60760 whole entry): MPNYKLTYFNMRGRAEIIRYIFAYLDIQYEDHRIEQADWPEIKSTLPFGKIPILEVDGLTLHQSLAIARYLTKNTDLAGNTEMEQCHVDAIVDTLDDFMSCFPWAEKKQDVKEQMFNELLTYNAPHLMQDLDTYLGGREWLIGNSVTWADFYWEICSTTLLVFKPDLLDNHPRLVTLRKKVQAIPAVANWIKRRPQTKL
Description: Homogeneous, Biochemical Assay Monitoring the Activity of Human Prostaglandin D Synthase Based on the Glutathion-S-Transferase Activity of the Enzyme
Prostaglandin D2 synthesis by Prostaglandin D synthase (GST2) requires transfer of Glutathion (GSH) to the substrate, Prostaglandin H2. […] Since the Prostaglandin D2 synthesis is absolutely dependent on the GST activity of the enzyme, assays monitoring the GST activity should allow to identify specific inhibitors of Prostaglandin D2 synthetic activity. The assay principle used is based on enzymatic conjugation of GSH to Monochlorobimane (MCB), that becomes fluorescent upon this chemical modification. Therefore, the enzymatic reaction can be monitored by total fluorescence measurement.
In brief, the open reading frame of human Prostaglandin D Synthase was amplified from cDNA using the primer pair:
This construct allows prokaryotic expression of Prostaglandin D Synthase as fusion protein with a N-terminal hexa-histidine tag, referred to as NHis-Prostaglandin D Synthase.
Expression of NHis-Prostaglandin D Synthase was in E. coli TOP10F′ (Invitrogen, Germany, cat. no. C3030-03). […] When the culture had reached a density corresponding to an A600 of 0.6, an equal volume of room temperature LB/ampicillin was added. […] Cells harvested by centrifugation were resuspended in 50 mM tris(hydroxymethyl)aminomethane hydrochloride pH 7.5 (Tris/HCl, Sigma, cat. no. T5941).
Removal of unbound material was with 100 ml lysis buffer. Elution was with 50 ml of 50 mM Tris/HCl pH 7.5, 300 mM imidazol (Sigma, Germany, cat. no. I2399)/HCl pH 7.5). […] Aliquots were shock frozen in liquid nitrogen and stored at −80° C.
All assay components were diluted in reaction buffer, 50 mM MES/KOH (pH 6.1), 0.7 mM GSH (Sigma, G4251), 2 mM MgCl2 (Sigma, M2670), 0.05% Pluronic F127 (Sigma, P2443), and stored on ice prior to use. Compounds were diluted in 90% DMSO yielding final assay concentrations from the picomolar to three digit micromolar range.
Total fluorescent measurement was carried out with excitation and emission wavelength of 390 and 460 nm, respectively (BMG Fluostar Optima).

IC50	Compound
0.001 to 0.01 µM	CC(C)(C)c1ccc(NC(=S)N2CCN(C(=O)c3ccccc3)CC2)cc1 [Compound 1, 4-Benzoyl-piperazine-1-carbothioic acid (4-tert-butyl-phenyl)-amide]
0.001 to 0.01 µM	CN(C)c1ccc(NC(=S)N2CCN(C(=O)c3ccccc3)CC2)cc1 [Compound 2, 4-Benzoyl-piperazine-1-carbothioic acid (4-dimethylamino-phenyl)-amide]
0.011 to 0.1 µM	O=C(c1ccccc1)N1CCN(C(=S)Nc2ccc([N+](=O)[O-])cc2)CC1 [Compound 3, 4-Benzoyl-piperazine-1-carbothioic acid (4-nitro-phenyl)-amide]
0.101 to 1 µM	O=C(c1ccccc1)N1CCN(C(=S)Nc2ccc(F)cc2)CC1 [Compound 4, 4-Benzoyl-piperazine-1-carbothioic acid (4-fluoro-phenyl)-amide]
0.011 to 0.1 µM	O=C(c1ccccc1)N1CCN(C(=S)Nc2cccc3ccccc23)CC1 [Compound 5, 4-Benzoyl-piperazine-1-carbothioic acid naphthalen-1-ylamide]
0.011 to 0.1 µM	COC(=O)c1ccc(NC(=S)N2CCN(C(=O)c3ccccc3)CC2)cc1 [Compound 6, 4-[(4-Benzoyl-piperazine-1-carbothioyl)-amino]-benzoic acid methyl ester]
0.101 to 1 µM	Cc1ccc(NC(=S)N2CCN(C(=O)c3ccccc3)CC2)cc1 [Compound 7, 4-Benzoyl-piperazine-1-carbothioic acid p-tolylamide]
0.011 to 0.1 µM	CC(C)(C)c1ccc(NC(=S)N2CCN(C(=O)c3ccc(F)cc3)CC2)cc1 [Compound 8, 4-(4-Fluoro-benzoyl)-piperazine-1-carbothioic acid (4-tert-butyl-phenyl)-amide]
0.101 to 1 µM	O=C(c1ccc(F)cc1)N1CCN(C(=S)Nc2ccc(Oc3ccccc3)cc2)CC1 [Compound 9, 4-(4-Fluoro-benzoyl)-piperazine-1-carbothioic acid (4-phenoxy-phenyl)-amide]
0.101 to 1 µM	CN(C)c1ccc(NC(=S)N2CCN(C(=O)c3ccc(F)cc3)CC2)cc1 [Compound 10, 4-(4-Fluoro-benzoyl)-piperazine-1-carbothioic acid (4-dimethylamino-phenyl)-amide]
0.101 to 1 µM	COC(=O)c1ccc(NC(=S)N2CCN(C(=O)c3ccc(F)cc3)CC2)cc1 [Compound 11, 4-{[4-(4-Fluoro-benzoyl)-piperazine-1-carbothioyl]-amino}-benzoic acid methyl ester]
0.101 to 1 µM	COc1ccc(NC(=S)N2CCN(C(=O)c3ccc(F)cc3)CC2)cc1 [Compound 12, 4-(4-Fluoro-benzoyl)-piperazine-1-carbothioic acid (4-methoxy-phenyl)-amide]
0.101 to 1 µM	Cc1ccc(NC(=S)N2CCN(C(=O)c3ccc(F)cc3)CC2)cc1 [Compound 13, 4-(4-Fluoro-benzoyl)-piperazine-1-carbothioic acid p-tolylamide]
0.101 to 1 µM	CN(C)c1ccc(NC(=S)N2CCN(C(=O)c3cccnc3)CC2)cc1 [Compound 14, 4-(Pyridine-3-carbonyl)-piperazine-1-carbothioic acid (4-dimethylamino-phenyl)-amide]
0.101 to 1 µM	O=C(c1cccc(F)n1)N1CCN(C(=S)Nc2ccc(Oc3ccccc3)cc2)CC1 [Compound 17, 4-(6-Fluoro-pyridine-2-carbonyl)-piperazine-1-carbothioic acid (4-phenoxy-phenyl)-amide]
0.101 to 1 µM	O=C(c1cccc(F)n1)N1CCN(C(=S)Nc2ccc(OC(F)F)cc2)CC1 [Compound 18, 4-(6-Fluoro-pyridine-2-carbonyl)-piperazine-1-carbothioic acid (4-difluoromethoxy-phenyl)-amide]
0.101 to 1 µM	O=C(c1cccc(F)n1)N1CCN(C(=S)Nc2ccc(OC(F)(F)F)cc2)CC1 [Compound 19, 4-(6-Fluoro-pyridine-2-carbonyl)-piperazine-1-carbothioic acid (4-trifluoromethoxy-phenyl)-amide]

Compound	IC50
4-(3-Fluoro-benzoyl)-piperazine-1-carboxylic acid [4-(2-methyl-thiazol-3-yl)-phenyl]-amide [Compound 29]	0.011 to 0.1 µM
